The record followed here is PMC8577999 (Slas Discovery, 2021).

Format in all cases: cell-based, SARS-CoV-2
Test [1] concerns SARS2-S SA variant (B.1.351). In words: microbe, parasite or virus in culture. As to conditions: Severe acute respiratory syndrome coronavirus 2, read-out: SA IC50.
Test [2] concerns SARS2-S UK variant (B.1.1.7). Description: microbe, parasite or virus in culture. The conditions noted are these: Severe acute respiratory syndrome coronavirus 2, read-out: UK IC50.
The next test has as its system SARS2-S N501Y-D614G. The conditions noted are these: read-out: N501Y-D614G IC50.
In another test the test system is SARS2-S D614G. The conditions noted are these: read-out: D614G IC50.

`CCCC[C@@H](C=O)NC(=O)[C@H](CC(C)C)NC(=O)OCc1ccccc1` [SR-914, calpeptin]: the IC50 in test [1] was 6.58 nM; in test [2], 34.7 nM; in the test on SARS2-S N501Y-D614G, 8.98 nM; in the test on SARS2-S D614G, 11.5 nM.

The term IC50 denotes the concentration at which inhibition is half-maximal.
